Data published in US20250074871A1, “PHENETHYLAMINES AND METHODS OF PREPARATION THEREOF” (priority 2022, published 2025).
Like-named read-outs stand apart in the source and are kept apart here.

What was measured:
5-HT2A receptor = biological target: T1, 5-HT2A receptor (Homo sapiens, UniProt P28223); assay: 5-HT2A Gq dissociation BRET functional assay; format: cell-based; conditions: for 5-HT2A BRET Eff %: normalized to % 5-HT stimulation
T1 construct: expressed in transfected cells; host or cells: HEK293T

5-HT2B receptor = biological target: T2, 5-HT2B receptor (Homo sapiens, UniProt P41595); assay: 5-HT2B Gq dissociation BRET functional assay; format: cell-based; conditions: Table 2; for EC50: at least three replicate trials; for 5-HT2B BRET Eff %: normalized to % 5-HT stimulation
T2 construct: expressed in transfected cells; host or cells: HEK293T

5-HT2C receptor = biological target: T3, 5-HT2C receptor (Homo sapiens, UniProt P28335); assay: cell-based; format: cell-based; conditions: Table 2; for EC50: at least three replicate trials, read-out: 5-HT2C BRET EC50; for 5-HT2C BRET Eff %: normalized to % 5-HT stimulation
T3 construct: expressed in transfected cells; host or cells: HEK293T
T3 sequence (P28335 33-458): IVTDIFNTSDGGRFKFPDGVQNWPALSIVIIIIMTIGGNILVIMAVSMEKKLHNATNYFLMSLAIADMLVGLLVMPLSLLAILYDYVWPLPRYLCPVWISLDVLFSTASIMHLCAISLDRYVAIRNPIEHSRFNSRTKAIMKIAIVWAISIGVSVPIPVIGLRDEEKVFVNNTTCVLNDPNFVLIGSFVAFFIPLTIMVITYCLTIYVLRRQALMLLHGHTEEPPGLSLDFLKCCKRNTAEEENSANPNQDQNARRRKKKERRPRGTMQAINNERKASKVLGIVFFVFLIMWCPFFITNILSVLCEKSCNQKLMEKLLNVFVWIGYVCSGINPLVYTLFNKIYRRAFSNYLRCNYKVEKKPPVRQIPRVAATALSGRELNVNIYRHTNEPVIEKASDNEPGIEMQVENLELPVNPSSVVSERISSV

[1] = biological target: T4, human ether-a-go-go-related gene (hERG) K+ channel (Homo sapiens, UniProt Q12809); assay: Eurofins hERG Qube APC Assay; format: cell-based; conditions: for IC50 (hERG)/EC50 (5-HT2A) ratio: Table 4
T4 construct: Eurofins
Text: As used herein and unless otherwise specified, the term “hERG risk” refers to the risk of a compound potentially inhibiting the human ether-a-go-go-related gene (hERG) K^+ channel, thereby leading to QT prolongation.
As a result of, many compounds disclosed in Table 1 and Table 2 were screened for the potential of “hERG risk” using pharmacological assays (e.g. Eurofins™ hERG Qube APC Assay). […].

mice = assay: head-twitch response (HTR) in mice; format: in vivo, male C57BL/6J mice; conditions: Mus musculus; mice
Method: As used herein and unless otherwise specified, the term “HTR” refers to head-twitch response, which is a measurement of 5-HT2A activation in vivo.
As used herein and unless otherwise specified, the term “mice” refers to male C57BL/6J mice (6-8 weeks old).
HTR was assessed using a head-mounted neodymium magnet and a magnetometer detection coil, as described in Halberstadt et al., Psychopharmacology (Berl.), 2013, 227(4): 727-739. Table 8 below summarizes the ED50 in head twitch in mice of various compounds disclosed herein as compared to psilocybin. FIG. 3 illustrates the HTR relative to dose for compound 109: […]

[2] = 5-HT2A BRET EC50 (nM), Table 2, at least three replicate trials
[3] = Table 2, at least three replicate trials, read-out: 5-HT2A BRET EC50

T1 sequence (P28223 whole entry): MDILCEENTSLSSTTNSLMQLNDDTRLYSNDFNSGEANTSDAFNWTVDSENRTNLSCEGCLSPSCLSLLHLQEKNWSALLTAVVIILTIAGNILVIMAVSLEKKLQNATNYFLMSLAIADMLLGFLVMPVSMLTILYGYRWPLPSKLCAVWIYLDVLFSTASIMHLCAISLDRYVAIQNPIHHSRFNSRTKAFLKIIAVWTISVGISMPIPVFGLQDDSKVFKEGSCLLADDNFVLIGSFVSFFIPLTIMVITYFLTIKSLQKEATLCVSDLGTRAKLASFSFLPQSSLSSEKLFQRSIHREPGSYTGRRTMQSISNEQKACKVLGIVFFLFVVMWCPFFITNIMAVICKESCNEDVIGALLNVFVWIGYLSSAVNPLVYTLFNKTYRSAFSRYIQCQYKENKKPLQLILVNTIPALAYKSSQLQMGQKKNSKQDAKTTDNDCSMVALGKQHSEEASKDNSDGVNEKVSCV
T2 sequence (P41595 whole entry): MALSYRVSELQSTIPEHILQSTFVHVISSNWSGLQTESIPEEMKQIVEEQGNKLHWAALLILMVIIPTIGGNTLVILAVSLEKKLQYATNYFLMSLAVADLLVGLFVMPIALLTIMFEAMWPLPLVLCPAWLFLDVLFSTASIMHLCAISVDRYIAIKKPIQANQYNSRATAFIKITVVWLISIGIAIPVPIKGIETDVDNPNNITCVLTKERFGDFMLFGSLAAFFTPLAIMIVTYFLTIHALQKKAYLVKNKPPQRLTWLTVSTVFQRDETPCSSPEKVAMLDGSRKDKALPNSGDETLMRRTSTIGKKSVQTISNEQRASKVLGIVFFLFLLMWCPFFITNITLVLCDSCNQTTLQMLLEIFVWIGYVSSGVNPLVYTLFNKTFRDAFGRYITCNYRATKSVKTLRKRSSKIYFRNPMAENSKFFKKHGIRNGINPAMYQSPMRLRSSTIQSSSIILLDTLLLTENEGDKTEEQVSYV
T4 sequence (Q12809 whole entry): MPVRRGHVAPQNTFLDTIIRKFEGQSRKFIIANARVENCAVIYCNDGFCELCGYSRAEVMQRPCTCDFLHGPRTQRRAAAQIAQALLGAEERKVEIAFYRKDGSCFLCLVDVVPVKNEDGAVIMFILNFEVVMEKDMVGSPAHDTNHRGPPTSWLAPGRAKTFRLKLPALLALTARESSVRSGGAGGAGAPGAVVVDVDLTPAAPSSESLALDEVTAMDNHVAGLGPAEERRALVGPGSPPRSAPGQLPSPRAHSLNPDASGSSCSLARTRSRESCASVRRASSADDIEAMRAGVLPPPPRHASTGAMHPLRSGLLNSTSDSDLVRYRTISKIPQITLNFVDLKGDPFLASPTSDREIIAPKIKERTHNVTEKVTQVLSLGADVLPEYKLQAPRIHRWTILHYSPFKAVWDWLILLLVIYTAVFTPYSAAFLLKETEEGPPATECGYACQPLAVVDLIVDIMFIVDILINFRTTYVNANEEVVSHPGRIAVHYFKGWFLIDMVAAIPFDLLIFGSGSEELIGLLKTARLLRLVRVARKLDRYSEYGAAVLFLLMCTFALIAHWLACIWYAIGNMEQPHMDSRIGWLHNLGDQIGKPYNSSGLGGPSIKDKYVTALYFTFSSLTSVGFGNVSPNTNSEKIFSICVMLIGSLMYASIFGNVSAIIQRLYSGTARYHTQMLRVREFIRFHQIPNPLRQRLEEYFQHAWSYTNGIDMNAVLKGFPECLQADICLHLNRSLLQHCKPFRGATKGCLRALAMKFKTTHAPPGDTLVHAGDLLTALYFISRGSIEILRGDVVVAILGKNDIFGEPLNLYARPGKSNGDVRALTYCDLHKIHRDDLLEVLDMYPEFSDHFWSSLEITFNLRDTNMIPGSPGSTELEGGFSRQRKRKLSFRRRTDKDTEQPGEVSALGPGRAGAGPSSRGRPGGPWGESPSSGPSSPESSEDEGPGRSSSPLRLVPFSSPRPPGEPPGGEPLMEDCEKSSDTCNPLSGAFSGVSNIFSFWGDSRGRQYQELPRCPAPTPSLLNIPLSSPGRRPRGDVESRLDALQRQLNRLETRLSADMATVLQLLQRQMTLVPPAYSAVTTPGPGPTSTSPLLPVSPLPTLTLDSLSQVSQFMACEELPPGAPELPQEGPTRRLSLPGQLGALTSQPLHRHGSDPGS

| SMILES | EC50 (5-HT2A receptor; [2]) [nM] | EC50 (5-HT2A receptor; EC50 BRET 2A, Table 4, unit inferred) [nM] | 5-HT2A BRET Eff % (5-HT2A receptor; Table 2) [%] | 5-HT2B BRET EC50 (nM) / Eff % (5-HT2B receptor) | EC50 (5-HT2C receptor) [nM] | 5-HT2C BRET Eff % (5-HT2C receptor) [%] | IC50 [1] [nM] | IC50 (hERG)/EC50 (5-HT2A) ratio [1] | ED50 (mice) [mg/kg] | EC50 (5-HT2A receptor; [3]) [nM] | EC50 (5-HT2B receptor; read-out: 5-HT2B BRET EC50) [nM] | 5-HT2B BRET Eff % (5-HT2B receptor) [%] | EC50 (5-HT2B receptor; 5-HT2B BRET EC50 (nM)) [nM] | EC50 (5-HT2A receptor; Table 4, unit inferred, read-out: EC50 BRET 2A) [nM] | hERG risk potential ([1]; based on IC50 (hERG)/EC50 (5-HT2A) ratio) |
| --- | --- | --- | --- | --- | --- | --- | --- | --- | --- | --- | --- | --- | --- | --- | --- |
| Oc1cc(Cl)ccc1CCNCc1ccccc1O [Cpd #131] | 2.4 | 2.1 | 93 | Inactive | 1.8 | 103 | 1310 | 624 | 1.24 | – | – | – | – | – | – |
| N#Cc1ccc(CCNCc2ccccc2O)c(C(F)(F)F)c1 [Cpd #137] | 312 | – | 89 | Inactive | 56.5 | 83 | – | – | – | – | – | – | – | – | – |
| COc1cc(C#N)ccc1CCNCc1cccs1 [Cpd #138] | – | – | 75 | – | 198 | 102 | – | – | – | 187 | 0.03 | −2 | – | – | – |
| N#Cc1ccc(CCNCc2ccsc2Cl)c(O)c1 [Cpd #139] | – | – | 80 | Inactive | 4670 | 91 | – | – | – | 1260 | – | – | – | – | – |
| COc1cc(Oc2ccccc2)ccc1CCN [Cpd #140] | 2890 | – | 87 | Inactive | 796 | 107 | – | – | – | – | – | – | – | – | – |
| COc1cc2c(cc1CCNCc1ccccc1O)CCO2 [Cpd #141] | 2.3 | – | 96 | – | 1.6 | 107 | – | – | – | – | – | 59 | 78.5 | – | – |
| CSc1ccccc1CNC[C@@H]1CCc2cc(C#N)cc(O)c21 [Cpd #142] | – | – | 68 | – | 17600 | 108 | – | – | – | 1960 | 18.5 | −20 | – | – | – |
| CN(C)CCc1c[nH]c2cccc(OP(=O)(O)O)c12 [Psilocybin, psilocybin, reference compound] | – | – | – | – | – | – | – | – | 0.38 | – | – | – | – | – | – |
| Oc1ccccc1CNCC(O)c1ccc(C(F)(F)F)cc1OCc1ccccc1 (centres unmarked) [Reference Compound 1a, reference compound] | – | – | 91 | – | 326 | 105 | 2300 | 5 | – | 451 | 342 | 56 | – | 451 | High (compounds exhibiting a IC50 (hERG) /EC50 (5-HT2A) ratio of less than or equal to 150 are generally indicative of high hERG risk potential) |
